Measurements taken from patent publication US20160074421A1 (priority 2014, published 2016).

Tests used:
tight junction = test system: tight junction; set-up: species or system BALB/c mice; conditions: mouse, in vivo, iv
PTEN = PTEN (Homo sapiens, UniProt P60484); assay type: biochemical
[1] = test system: epithelial and endothelial tissues; conditions: in vivo

Chain of PTEN (P60484 whole entry): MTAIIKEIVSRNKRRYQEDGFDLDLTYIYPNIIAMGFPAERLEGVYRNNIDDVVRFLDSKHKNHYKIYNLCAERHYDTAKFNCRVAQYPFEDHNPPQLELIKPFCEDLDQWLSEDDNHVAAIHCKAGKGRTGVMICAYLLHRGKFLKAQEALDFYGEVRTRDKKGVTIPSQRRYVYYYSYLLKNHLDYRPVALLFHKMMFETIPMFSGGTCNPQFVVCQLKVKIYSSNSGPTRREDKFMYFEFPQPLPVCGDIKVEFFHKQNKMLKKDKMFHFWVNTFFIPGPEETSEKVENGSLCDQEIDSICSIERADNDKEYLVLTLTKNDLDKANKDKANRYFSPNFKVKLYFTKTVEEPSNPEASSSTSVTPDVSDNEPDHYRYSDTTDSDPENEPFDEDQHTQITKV

Substance: 1-D-Myo-inositol 1,2,6-triphosphate [alpha trinositol]
- effect on tight junction disturbance (tight junction): have a counterbalancing effect

Substance: zinc ions
- activity of PTEN (PTEN): inhibit the activity of PTEN

Substance: sodium salt of D-myo-inositol-1,2,6-trisphosphate
- progressive deterioration of the structure and function of anatomical structures in epithelial and endothelial tissues [1]: prevented this deterioration
- confirmation of the prevention of tissue deterioration ([1]; iv): confirmed
